Values quoted from earlier work as cited in article PMC12175978, “First-in-Human Serum Stability Studies of [^177Lu]Lu-AMTG: A Step Toward Improved GRPR-Targeted Radiopharmaceutical Therapy” (Journal of Nuclear Medicine, 2025).
Like-named read-outs stand apart in the source and are kept apart here.

Substance	in vivo serum stability in humans (in words) (in vivo)	in vivo serum stability in humans (in words) (human)
[^177Lu]Lu-DOTATATE	very stable	–
[^177Lu]Lu-PSMA-617	–	very stable
